Results as given in US10065931B2, “Quinazolin crotyl compound dimaleate crystals and preparation methods and uses thereof” (HANGZHOU HUADONG MEDICINE GROUP BIOPHARMACEUTICAL CO., LTD., priority 2015, dated 2018).
Converted amounts (≈) assume the structure as drawn. Read-outs that look alike come from different tables or passages of the source.

How the values were obtained:
Type in all cases: physicochemical
[1] = Storage stability test, chemical content by HPLC; conditions: for Initial content: before storage; for Chemical stability, 25° C./60% R.H. One week / Chemical stability, 40° C./75% R.H. One week: chemical content as % of initial content; for Chemical content after storage (in words): one week, 40° C./75% R.H.
[2] = Storage stability test, physical stability by XRPD; conditions: for XRPD pattern after storage (physical stability): one week of storage, 25° C./60% R.H. and 40° C./75% R.H.
Description: In the following examples, the XRPD of the crystal form was determined using a PANalytical Empyrean X-ray powder diffraction analyzer, the parameters are summarized in Table 1.

[3] = Second set of competition of stabilities between crystal form K and crystal form F (solid mixture stored 10 days, XRPD)
Text: Then two samples were placed in different environments for 10 days and were subjected to XRPD test respectively.

[4] = Solubility in water, FaSSIF, FeSSIF and SGF
Description: Wherein FaSSIF and FeSSIF were prepared according to the method described in the literature: Study of a Standardized Taurocholate-Lecithin Powder for Preparing the Biorelevant Media FeSSIF and FaSSIF (Kloefer, B., van Hoogevest, P., Moloney, R., Kuentz, M., Leigh, M. L., & Dressman, J. (2010). Dissolution Technologies, August 17(3), 6-14. SGF was prepared according to the method described in the literature Albendazole Generics-A Comparative In Vitro Study (Galia E., Horton, J and Dressman J. (1999) Pharmaceutical Research, 16 (12), […]). The test results are summarized in Table 6.

[5] = Competition of stability between crystal form K and crystal form G in water (XRPD); conditions: 12 hours stirring, room temperature
Description: After 12 hours of stirring under room temperature, the solid was separated by centrifugation and was subjected to XRPD test, the results are shown in FIG. 20.

[6] = First set of competition of stabilities between crystal form K and crystal form F (suspension, different water activities, XRPD); conditions: room temperature
Description: After 12 hours of stirring under room temperature, the solid was isolated by centrifugation and the XRPD thereof was tested.

Structure (SMILES) | Initial content [1] [%] | Chemical stability, 25° C./60% R.H. One week [1] [%] | Chemical stability, 40° C./75% R.H. One week [1] [%] | Chemical content after storage (in words) [1] | XRPD pattern after storage (physical stability) [2] | Solubility ([4]; FaSSIF, pH 6.5) [µg/mL] | Solubility ([4]; FeSSIF, pH 5.0) [µg/mL] | Solubility ([4]; SGF, pH 1.8) [µg/mL] | Solubility ([4]; Water, pH 7.4) [µg/mL] | other results
CN(C)C/C=C/C(=O)Nc1cc2c(Nc3ccc(F)c(Cl)c3)ncnc2cc1OC(F)F [Crystal form E] | 100.0 | 99.8 | 99.5 | – | – | – | – | – | – | –
CN(C)C/C=C/C(=O)Nc1cc2c(Nc3ccc(F)c(Cl)c3)ncnc2cc1OC(F)F [Crystal form F] | 100.0 | 99.8 | 99.7 | stable | basically the same | 2440 (≈ 5.24 mM) | 570 (≈ 1.22 mM) | >10650 | >9810 | Crystal form after storage of crystal form F mixed with about 1% crystal form K ([3]; 25° C., 60% R.H.): form F; Crystal form after storage of crystal form F mixed with about 1% crystal form K ([3]; 25° C., 60% R.H., listed as crystal form F): did not change; Crystal form after storage of crystal form F mixed with about 1% crystal form K ([3]; 40° C., 75% R.H.): form K; Crystal form after storage of crystal form F mixed with about 1% crystal form K ([3]; 40° C., 75% R.H., listed as crystal form F): converted to the crystal form K
CN(C)C/C=C/C(=O)Nc1cc2c(Nc3ccc(F)c(Cl)c3)ncnc2cc1OC(F)F [Crystal form G] | 100.0 | 99.8 | 99.6 | stable | – | – | – | – | – | Crystal form after competition with crystal form K in saturated water solution [5]: converted to crystal form K
CN(C)C/C=C/C(=O)Nc1cc2c(Nc3ccc(F)c(Cl)c3)ncnc2cc1OC(F)F [Crystal form K] | 100.0 | 99.9 | 99.8 | stable | basically the same | 8360 (≈ 17.9 mM) | 1240 (≈ 2.66 mM) | >9950 | >10020 | XRPD pattern after storage (physical and chemical stability) ([2]; 6 months of storage, 40° C./75% R.H.): basically the same; Water activity at which crystal form K is thermodynamically more stable than crystal form F [6]: greater than or equal to 0.15; Crystal form after competition with crystal form F ([6]; water activity 0.00, IPA, 12 hours stirring): Crystal form F; Crystal form after competition with crystal form F ([6]; water activity 0.15, IPA:H2O 99:1, 12 hours stirring): Crystal form K; Crystal form after competition with crystal form F ([6]; water activity 0.39, IPA:H2O 24:1, 12 hours stirring): Crystal form K; Crystal form after competition with crystal form F ([6]; water activity 0.60, ACN:H2O 19:1, 12 hours stirring): Crystal form K; Crystal form after competition with crystal form F ([6]; water activity 0.80, ACN:H2O 9:1, 12 hours stirring): Crystal form K
CN(C)C/C=C/C(=O)Nc1cc2c(Nc3ccc(F)c(Cl)c3)ncnc2cc1OC(F)F [Free base] | 100.0 | 99.8 | 94.8 | – | changed significantly | 30 (≈ 0.0644 mM) | 100 (≈ 0.215 mM) | – | <2.5 | Chemical stability, 40° C./75% R.H. One week ([1]; listed as free base): 94.8%; Long-term storage stability (in words) [2]: poor; Water solubility (in words) [4]: poor; Solubility ([4]; SGF, pH 1.8, simulated gastric fluid, thermodynamic from solid, SGF, pH 1.8, read-out: Solubility): 8370 µg/mL (≈ 18 mM)
